Assay results taken from ChEMBL document CHEMBL3886681, “Rotenone derivatives and a use thereof” (2016).

Target: T1, Pancreatic triacylglycerol lipase (Sus scrofa, UniProt P00591)
T1 sequence (P00591 whole entry): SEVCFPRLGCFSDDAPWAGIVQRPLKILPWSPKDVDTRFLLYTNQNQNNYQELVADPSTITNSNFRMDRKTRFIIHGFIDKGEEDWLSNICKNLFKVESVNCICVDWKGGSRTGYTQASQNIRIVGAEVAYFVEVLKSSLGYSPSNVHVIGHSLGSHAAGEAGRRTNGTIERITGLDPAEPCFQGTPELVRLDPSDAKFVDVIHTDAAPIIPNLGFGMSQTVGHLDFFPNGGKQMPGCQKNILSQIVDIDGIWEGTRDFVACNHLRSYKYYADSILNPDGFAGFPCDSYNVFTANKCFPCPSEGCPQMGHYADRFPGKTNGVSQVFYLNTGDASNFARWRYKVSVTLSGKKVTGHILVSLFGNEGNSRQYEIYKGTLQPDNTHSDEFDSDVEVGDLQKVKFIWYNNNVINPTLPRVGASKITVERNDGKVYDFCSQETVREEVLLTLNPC
Test: Inhibition Assay: Particularly, pancreatic lipase inhibiting activity was measured by the conventional method known to those in the art (Kim, J. H.; Kim, H. J.; Park, H. W.; Youn, S. H.; Choi, D. Y.; Shin, C. S. FEMS Microbiol. Lett. 2007, 276, 93.). To prepare the enzyme buffer, 30 mL (10 units) of pig pancreatic lipase solution (Sigma, St. Louis, Mo.) and 1 mM EDTA (pH 6.8) were mixed with 10 mM MOPS (morpholinepropanesulphonic acid), which was added to 850 mL of tris buffer (100 mM Tris-HCl and 5 mM CaCl2, pH 7.0). Then, 100 mL of the rotenoisin A or B of the present invention was mixed with the prepared enzyme buffer at the experimental concentration. […] 20 mL of substrate solution containing 20 mM p-nitrophenylbutyrate dissolved in dimethyl formaide was added to the enzyme buffer, followed by culture for 15 minutes at 37° C. that was the temperature adequate for enzyme reaction.

For `C=C(C)[C@H]1Cc2c(ccc3c2OC2COc4cc(OC)c(OC)cc4C2[C@@]32CO2)O1` (stereo partly specified), the IC50 was 6.3 µM.
